Measured values taken from ChEMBL document CHEMBL1148225, “Discovery and SAR of trisubstituted thiazolidinones as CCR4 antagonists” (Bioorg Med Chem Lett, 2004).
Values joined by “and” are separate entries in the source; they are usually repeats but may differ in a detail not shown here. Equal entries are not always repeated.

Each compound was assayed against T1, C-C chemokine receptor type 4 (Homo sapiens, UniProt P51679) (assay: Inhibition of [125I]MDC binding to recombinant human C-C chemokine receptor type 4 (CCR4) expressed in murine pre-B cells).
T1 sequence (P51679 whole entry): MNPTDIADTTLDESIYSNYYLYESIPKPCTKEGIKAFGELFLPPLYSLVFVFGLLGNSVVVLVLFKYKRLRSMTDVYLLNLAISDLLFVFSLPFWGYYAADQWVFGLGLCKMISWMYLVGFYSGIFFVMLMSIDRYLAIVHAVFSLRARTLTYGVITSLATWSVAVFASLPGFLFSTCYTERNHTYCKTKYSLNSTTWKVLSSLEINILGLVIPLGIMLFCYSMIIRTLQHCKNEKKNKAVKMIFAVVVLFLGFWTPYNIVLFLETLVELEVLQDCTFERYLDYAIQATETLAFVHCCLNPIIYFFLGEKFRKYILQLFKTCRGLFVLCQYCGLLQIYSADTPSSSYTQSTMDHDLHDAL
Format: cell-based

| SMILES | IC50 |
| --- | --- |
| O=C(C[C@H]1S[C@H](c2ccc(Cl)cc2Cl)N(CC(=O)NCCCN2CCOCC2)C1=O)NCc1cccc(-c2ccccc2)c1 | 1.3 µM |
| Cc1cccc(CNC(=O)C[C@H]2S[C@H](c3ccc(Cl)cc3Cl)N(CC(=O)NCCCN3CCOCC3)C2=O)c1 | 2.3 µM |
| O=C(C[C@H]1S[C@H](c2ccc(Cl)cc2Cl)N(CC(=O)NCCN2CCOCC2)C1=O)NCc1cccc2ccccc12 | 3.5 µM |
| O=C(C[C@H]1S[C@H](c2ccc(Cl)cc2Cl)N(CC(=O)NCCCN2CCOCC2)C1=O)NCc1cccc2ccccc12 | 0.69 µM |
| O=C(C[C@H]1S[C@H](c2ccc(Cl)cc2Cl)N(CCCN2CCOCC2)C1=O)NCc1cccc2ccccc12 | 33 µM |
| COc1ccc(CNC(=O)C[C@H]2S[C@H](c3ccc(Cl)cc3Cl)N(CC(=O)NCCCN3CCOCC3)C2=O)c(OC)c1OC | 11 µM |
| O=C(C[C@H]1S[C@H](c2ccc(Cl)cc2Cl)N(CC(=O)NCCCN2CCOCC2)C1=O)NCc1ccc2[nH]ccc2c1 | 1 µM |
| O=C(C[C@H]1S[C@H](c2ccc(Cl)c(Cl)c2)N(CC(=O)NCCCN2CCOCC2)C1=O)NCc1cccc2ccccc12 | > 25 µM |
| CN1CCN(CCCNC(=O)CN2C(=O)[C@@H](CC(=O)NCc3cccc4ccccc34)S[C@@H]2c2ccc(Cl)cc2Cl)CC1 | 0.57 µM |
| O=C(C[C@H]1S[C@H](c2ccc(Cl)cc2Cl)N(CC(=O)NCCCN2CCOCC2)C1=O)NCCc1ccc(Cl)c(Cl)c1 | 13 µM |
| O=C(C[C@H]1S[C@H](c2ccc(Cl)cc2Cl)N(CC(=O)NCCCN2CCOCC2)C1=O)NCc1cccc(Cl)c1 | 0.93 µM |
| O=C(C[C@H]1S[C@H](c2ccc(Cl)cc2Cl)N(CC(=O)NCCCN2CCOCC2)C1=O)NCc1ccc(Cl)cc1Cl (stereo in doubt; 66) | 2 µM |
| O=C(C[C@H]1S[C@H](c2cc(Cl)cc(Cl)c2)N(CC(=O)NCCCN2CCOCC2)C1=O)NCc1cccc2ccccc12 | 9 µM |
| O=C(C[C@H]1S[C@H](c2ccc(Cl)cc2Cl)N(CC(=O)NCCCN2CCOCC2)C1=O)NCc1cc(Cl)cc(Cl)c1 | 1.5 µM |
| O=C(C[C@H]1S[C@H](c2ccc(Cl)cc2Cl)N(CC(=O)NCCCN2CCOCC2)C1=O)NCc1ccccc1Cl | 10 µM |
| O=C(C[C@H]1S[C@H](c2ccc(F)cc2Cl)N(CC(=O)NCCCN2CCOCC2)C1=O)NCc1cccc2ccccc12 | 1 µM |
| C[C@@H](NC(=O)C[C@H]1S[C@H](c2ccc(Cl)cc2Cl)N(CC(=O)NCCCN2CCOCC2)C1=O)c1ccccc1 (stereo in doubt; 89) | 0.25 µM |
| O=C(C[C@H]1S[C@H](c2ccc(Cl)cc2)N(CC(=O)NCCCN2CCOCC2)C1=O)NCc1cccc2ccccc12 | 0.83 µM |
| COc1ccc(CNC(=O)C[C@H]2S[C@H](c3ccc(Cl)cc3Cl)N(CC(=O)NCCCN3CCOCC3)C2=O)c(OC)c1 | 32 µM |
| C[C@@H](NC(=O)C[C@H]1S[C@H](c2ccc(Cl)cc2Cl)N(CC(=O)NCCCN2CCOCC2)C1=O)c1cccc2ccccc12 | 0.25 µM |
| CN(C)CCCNC(=O)CN1C(=O)[C@@H](CC(=O)NCc2cccc3ccccc23)S[C@@H]1c1ccc(Cl)cc1Cl | 0.36 µM |
| Cc1ccccc1CNC(=O)C[C@H]1S[C@H](c2ccc(Cl)cc2Cl)N(CC(=O)NCCCN2CCOCC2)C1=O | 11 µM |
| O=C(C[C@H]1S[C@H](c2ccc(Cl)cc2Cl)N(CC(=O)N2CCC(N3CCCC3)CC2)C1=O)NCc1cccc2ccccc12 | 0.6 µM |
| O=C(CN1C(=O)[C@@H](CC(=O)NC2CCCc3ccccc32)S[C@@H]1c1ccc(Cl)cc1Cl)NCCCN1CCOCC1 (some centres undefined) | 6.7 µM |
| O=C(C[C@H]1S[C@H](c2ccc(F)cc2)N(CC(=O)NCCCN2CCOCC2)C1=O)NCc1cccc2ccccc12 | 4 µM |
| CN(C)CCCN(C)C(=O)CN1C(=O)[C@@H](CC(=O)NCc2cccc3ccccc23)S[C@@H]1c1ccc(Cl)cc1Cl | 0.36 µM |
| CC(C)CCNC(=O)C[C@H]1S[C@H](c2ccc(Cl)cc2Cl)N(CC(=O)NCCCN2CCOCC2)C1=O | 19 µM |

| SMILES | IC50 |
| --- | --- |
| O=C(C[C@H]1S[C@H](c2ccc(Cl)cc2Cl)N(CC(=O)NCCCN2CCOCC2)C1=O)NCc1ccccc1-c1ccccc1 | 6 µM |
| Cc1cccc(CNC(=O)C[C@H]2S[C@H](c3ccc(Cl)cc3Cl)N(CC(=O)NCCCN3CCOCC3)C2=O)c1C | 0.44 µM |
| O=C(C[C@H]1S[C@H](c2ccsc2)N(CC(=O)NCCCN2CCOCC2)C1=O)NCc1cccc2ccccc12 | 66 µM |
| Cc1ccc([C@H]2S[C@H](CC(=O)NCc3cccc4ccccc34)C(=O)N2CC(=O)NCCCN2CCOCC2)c(C)c1 | 11 µM |
| O=C(C[C@H]1S[C@H](Cc2ccccc2)N(CC(=O)NCCCN2CCOCC2)C1=O)NCc1cccc2ccccc12 | > 100 µM |
| CC(C)(C)CCNC(=O)C[C@H]1S[C@H](c2ccc(Cl)cc2Cl)N(CC(=O)NCCCN2CCOCC2)C1=O | 21 µM |
| O=C(C[C@H]1S[C@H](c2ccc(Cl)cc2Cl)N(CC(=O)NCCCCN2CCOCC2)C1=O)NCc1cccc2ccccc12 | 0.38 µM |
| O=C(C[C@H]1S[C@H](c2ccc(Cl)cc2Cl)N(CC(=O)NCCCN2CCOCC2)C1=O)NCc1cccs1 | 11 µM |
| O=C(CN1C(=O)[C@@H](CC(=O)NC2CCCCC2)S[C@@H]1c1ccc(Cl)cc1Cl)NCCCN1CCOCC1 | 7 µM |
| Cc1ccc(CNC(=O)C[C@H]2S[C@H](c3ccc(Cl)cc3Cl)N(CC(=O)NCCCN3CCOCC3)C2=O)n1C | 2.5 µM |
| O=C(C[C@H]1S[C@H](c2ccc(Cl)cc2Cl)N(CCNS(=O)(=O)CCCN2CCOCC2)C1=O)NCc1cccc2ccccc12 | 24 µM |
| O=C(C[C@H]1S[C@H](c2ccccc2Cl)N(CC(=O)NCCCN2CCOCC2)C1=O)NCc1cccc2ccccc12 | 11 µM |
| O=C(C[C@H]1S[C@H](c2cccc(Cl)c2)N(CC(=O)NCCCN2CCOCC2)C1=O)NCc1cccc2ccccc12 | 7 µM |
| O=C(C[C@H]1S[C@H](c2ccc(Cl)cc2Cl)N(CC(=O)NCCCN2CCOCC2)C1=O)NCc1cccc(Cl)c1Cl | 0.79 µM |
| C[C@H](NC(=O)C[C@H]1S[C@H](c2ccc(Cl)cc2Cl)N(CC(=O)NCCCN2CCOCC2)C1=O)c1ccccc1 | 12 µM |
| CN(C)CCCN1C(=O)[C@@H](CC(=O)NCc2cccc3ccccc23)S[C@@H]1c1ccc(Cl)cc1Cl | 5.6 µM |
| O=C(CN1C(=O)[C@@H](CC(=O)Nc2nccs2)S[C@@H]1c1ccc(Cl)cc1Cl)NCCCN1CCOCC1 | 11 µM |
| CN(C)CC(=O)NCCN1C(=O)[C@@H](CC(=O)NCc2cccc3ccccc23)S[C@@H]1c1ccc(Cl)cc1Cl | 11 µM |
| O=C(C[C@H]1S[C@H](CCc2ccccc2)N(CC(=O)NCCCN2CCOCC2)C1=O)NCc1cccc2ccccc12 | 100 µM |
| O=C(C[C@H]1S[C@H](c2ccc(Cl)cc2Cl)N(CCC(=O)N2CCNCC2)C1=O)NCc1cccc2ccccc12 | 3.5 µM |
| O=C(CC1SC(c2ccc(Cl)cc2)N(CC(=O)NCCCN2CCOCC2)C1=O)NCc1cccc2ccccc12 (centres undefined) | 2.4 µM and 0.83 µM |
| O=C(C[C@H]1S[C@H](C2CCCCC2)N(CC(=O)NCCCN2CCOCC2)C1=O)NCc1cccc2ccccc12 | 100 µM |
| O=C(C[C@H]1S[C@H](c2cccc(C(F)(F)F)c2)N(CC(=O)NCCCN2CCOCC2)C1=O)NCc1cccc2ccccc12 | 12 µM |
| O=C(C[C@H]1S[C@H](c2ccc(Cl)cc2Cl)N(CC(=O)N2CCNCC2)C1=O)NCc1cccc2ccccc12 | 1.4 µM |
| O=C(C[C@H]1S[C@H](c2ccc(Cl)cc2Cl)N(CC(=O)N2CCC(N3CCCCC3)CC2)C1=O)NCc1cccc2ccccc12 | 0.33 µM |
| O=C(C[C@H]1S[C@H](c2ccc(Cl)cc2Cl)N(CC(=O)NCCCN2CCCCC2)C1=O)NCc1cccc2ccccc12 | 0.2 µM |
| O=C(C[C@H]1S[C@H](c2ccc(Cl)cc2Cl)N(CC(=O)NCCCN2CCOCC2)C1=O)NCc1cccc(F)c1 | 1.5 µM |
